In a melting point compilation (Tetko et al.; mined from patent text by program, amines drawn as free bases though some values may be those of a salt) one finds melting point data, which are given here for 88 compounds.

A value given as a limit tells only on which side of the number the result lay.

The melting point is the temperature of the solid-liquid transition. In turn, `CS(=O)(=O)Nc1cc(NC(=O)CC(=O)C(F)(F)F)c(F)cc1C#N` yielded a melting point of 186 to 191 °C.

Take `FC(F)(F)c1cc(-c2ccc(Cl)cc2)nc2c(-c3ccncc3)cnn12`: the melting point stood at 274 °C.

In turn, `c1cnc2c(c1)-c1nc(NC3CCNCC3)ncc1-c1ccncc1N2` gave a melting point of 189 to 191 °C. The value for `CCC(=O)NC1=NN(c2ccc(F)cc2)C(C)C1` (stereo not drawn) was 125 to 126 °C; that for `COc1c(C(C)(C)C)cc(C(=O)O)cc1C(C)(C)C` was 192 to 195 °C. Turning to `Cc1cccc2c1CCc1ccccc1C2(O)CCCN=Cc1ccccc1` (stereo not drawn), the melting point lay within 130 to 131 °C. `COc1ccc(N2CCN(c3ccc(-n4cccn4)cc3)CC2)cc1` gave a melting point of 208 °C. Take `O=C(CCc1ccccc1)c1ccc(Cl)cc1`: the melting point fell in the range of 78 to 79 °C. `O=C(COC(=O)c1ccccc1Nc1ccnc2c(C(F)(F)F)cccc12)OC1CCN(Cc2ccccc2)CC1` displayed a melting point of 99 to 100 °C. In turn, `COC(=O)c1ccc(OCCN2C(=O)c3ccccc3C2=O)cc1` showed a melting point of 129 to 130 °C. `CC(C)(C)N1C(=O)C(=O)N(c2cc(Cl)cc(Cl)c2)S1=O` (stereo not drawn) displayed a melting point of 182 °C. With `CC(=CC#N)NCc1ccc(Cl)nc1`, the melting point fell in the range of 95 to 98 °C. With `NC(=O)c1ccc(N2CCN(Cc3cn4cc(Cl)ccc4n3)CC2)cc1` the figure was 240 to 241 °C. As for `Fc1ccccc1Cn1cnc2c(NC3CC3)nc(C(F)(F)F)nc21`, the melting point is 118 to 119 °C.

The compound `c1ccc2c(c1)CCc1cccnc1C2C1CCNCC1` (stereo not drawn) gave a melting point of 111 to 114 °C.

In turn, `NC(=O)Nc1cccc2c1C(=O)c1c-2n[nH]c1-c1ccco1` came in with a melting point of 278 °C. With `Cc1nc(Cl)c(C#N)c(C)c1-c1ccccc1`, the melting point lay in the range of 118 to 123 °C.

The compound `COC(=O)C1Cc2ccccc2NC1=O` (stereo not drawn) displayed a melting point of 165 to 168 °C. In the case of `CC(=O)COc1ccc(CC2SC(=O)NC2=O)cc1` (stereo not drawn), the melting point lay in the range of 158 to 159 °C. Take `CCOC(=O)N1CCN(c2ccc(-n3cnn(C(CC)C(=O)c4ccc(Cl)cc4)c3=O)cn2)CC1` (stereo not drawn): the melting point was 139 °C.

On to `COC1=C(OC)C(=O)C2=C(CCC(CCn3ccccc3=O)CC2)C1=O`, for which the melting point was in the range of 85 to 89 °C. `Cn1c([N+](=O)[O-])cnc1CS(=O)(=O)c1ccccn1` returned a melting point of 187 °C. As to `COC(=O)Cc1ccccc1NC(=S)N(C)NC(=O)c1ccccc1`, the melting point is 148 to 150 °C. The value for `O=C1c2ccccc2C(=O)N1OCCCN1CCN(c2nsc3ccccc23)CC1` was 143 to 144 °C; that for `CCOC(=O)c1n[nH]c2c(=S)[nH]c3cc(Cl)ccc3c(=O)c12` was 248 to 253 °C; that for `N#Cc1c(S(=O)(=O)C(F)(F)C(F)Cl)[nH]c2ccccc12` (stereo not drawn) was 164 to 167 °C.

`O=S(=O)(C(/C=C/c1ccc(Br)cc1)c1c(F)c(F)c(F)c(F)c1F)C(/C=C/c1ccc(Br)cc1)c1c(F)c(F)c(F)c(F)c1F` (stereo not drawn) returned a melting point of 176 to 177 °C. The compound `Nc1c(F)c(F)c(OC(F)F)c2c1c(=O)c(C(=O)O)cn2C1CC1` came in with a melting point of 284 to 286 °C. `N#Cc1ccc(C(=O)NNc2c(Cl)cc(C(F)(F)F)cc2Cl)cc1` had a melting point of 185 to 186 °C. Take `CC(O)Cc1c2ccccc2cc2ccccc12` (stereo not drawn): the melting point lay within 105 to 107 °C. `Nc1nsnc1NCCCOc1cccc(CN2CCCCC2)c1` gave a melting point of 137 to 138 °C. `Cc1cc2c(=O)c(C(=O)O)cn(-c3cc(N)c(F)cc3F)c2c([N+](=O)[O-])c1F`: the melting point fell in the range of 236 to 242 °C. The compound `CC(=O)NNC(=S)N1N=C(c2ccc([N+](=O)[O-])cc2)c2cc3c(cc2CC1C)OCO3` (stereo not drawn) returned a melting point of 118 °C. The compound `CCOC(=O)c1ccc(N)c(Cl)c1` showed a melting point of 82 to 83 °C. Turning to `COC(=O)C=C1CN=C(c2ccccc2)c2cc(Cl)ccc2N1`, the melting point lay in the range of 167 to 170 °C.

Take `COC(=O)C(Oc1ccc(C(C)(C)C)cc1Cl)c1ccc(Oc2ccc(Cl)cc2)cc1` (stereo not drawn): the melting point lay within 85.5 to 88 °C. On to `O=C1C=C(N2CCC3(CC2)CSC2=C(O3)c3ccccc3C(=O)C2=O)c2ccccc2C1=O`, for which the melting point lay in the range of 250 to 260 °C. The value for `COc1cccc(-c2ccccc2)c1C(O)=S` was 97 to 98 °C; that for `NS(=O)(=O)c1cccc2nonc12` was 157 to 159 °C; that for `Cc1ccc(S(=O)(=O)N2CCC(CC(C#N)(c3ccccc3)c3ccccc3)CC2)cc1` was 130 °C.

Compound `O=C1Cc2ccccc2C(=O)N1Cc1ccccc1F` returned a melting point of 140 to 144 °C. `N#Cc1c(O)nc2ccc([N+](=O)[O-])cc2c1O` returned a melting point of 281 to 282 °C. The value for `NC(=O)CNC(=O)c1nccc(-c2cccc3cc(Cc4cccc(C(F)(F)F)c4)sc23)n1` was 241 to 242 °C; that for `CCCC1=C(C)C(=O)c2c(oc(Cc3ccc(OC)cc3)c2C)C1=O` was 60 to 61 °C; that for `C=CC(=O)OCCCCCCC[C@H]1CC[C@H](c2cccc(F)c2F)CC1` was 34 to 35.3 °C. With `COc1ccc(C(=O)Nc2ccc(Cl)c(Cl)c2)cc1NC(=S)Nc1cc(Cl)cc(Cl)c1` the figure was 189 to 191 °C; with `N#Cc1ccc(N2Cc3ccccc3C2)c2ccccc12`, 156 to 158 °C; with `N#Cc1cnc(Nc2ccc(F)cc2)nc1-c1ccc(N)nc1`, 289 °C. In turn, `CN1C(=O)CC[C@]2(C)c3ccc(-c4ccc5ccccc5n4)cc3CC[C@@H]12` gave a melting point of 140 to 145 °C.

`COc1ccc2cc([C@H](C)C(=O)NNC(=O)CCCO[N+](=O)[O-])ccc2c1` had a melting point of 117 to 119 °C.

Consider `Cc1ccc(F)cc1C(=O)Nc1ccc(C(=O)N2CCC=Cc3sccc32)c(Cl)c1`, for which the melting point lay within 125 to 132 °C. Take `COc1cccc(CNc2ncnc3c2sc2nc(N(C)C)c4c(c23)CC(C)(C)CC4)c1OC`: the melting point lay within 91.9 to 93 °C. In turn, `CCOCc1nc2c(N)nc3cc(OCc4csc(C)n4)ccc3c2n1CC(C)(C)O` gave a melting point of 200 to 201 °C. `Cc1ccc2c(O)c3c(=O)[nH][nH]c(=O)c3nc2c1` yielded a melting point greater than 395 °C.

The compound `CCN1C[C@@H](O)[C@H](N(C(=O)c2ccc(Cl)cc2)C2CCCCC2)C1` (relative stereo) returned a melting point of 111 to 116 °C. The value for `O=C1CCC(c2ccc3[nH]c(-c4ccnnc4)cc3c2)=NN1` was greater than 300 °C; that for `Cc1cc(C)cc(C(OC(C)C(c2ccccc2)c2ccccc2)N(C)C(=O)c2ccccc2)c1` (stereo not drawn) was 89 to 91 °C. On to `CS(=O)(=O)c1ccc(-n2cc(-c3ccc4ccccc4c3)nc2-c2ccc(Cl)cc2)cc1`, for which the melting point was 204 to 206 °C.

Consider `COC(=O)CCCC#Cc1nc(C(F)(F)F)ccc1N`, for which the melting point is 49 °C. Regarding `O=C(NCCO)c1ccc(C(=O)NCCO)cc1`, the melting point was 227 to 229 °C. In the case of `CCc1ccc(Nc2nc3cc(NC(=O)c4ccc(CC)cc4)ccc3o2)cc1`, the melting point was greater than 250 °C. On to `O=C(O)c1cn(C2CC2)c2cc(-c3ccncc3)ccc2c1=O`, for which the melting point was 278 to 281 °C. As for `Clc1cc(CCc2ccccn2)c2oc(-c3cccs3)nc2c1`, the melting point was in the range of 90 to 91 °C. The compound `CCOc1cc(C(CS(C)(=O)=O)N2C(=O)c3cccc(N(S(C)(=O)=O)S(C)(=O)=O)c3C2=O)ccc1OC` (stereo not drawn) gave a melting point of 277 to 279 °C. The compound `CN(C)S(=O)(=O)c1cn(C)c2ccccc2c1=O` showed a melting point of 225 to 226 °C. In turn, `CNc1ccc2c(C)nc(CC3OC(COC(=O)c4ccccc4)C(O)C3O)n2n1` (stereo not drawn) had a melting point of 163 to 165 °C. `CCOCc1nc2c(N)nc3ccccc3c2n1CCN1C(C)=NOC12CCCC2` showed a melting point of 211 to 213 °C. Turning to `Cc1oc(C=Cc2ccccc2Cl)nc1C(=O)O`, the melting point is 223 to 224 °C. `CCNC(=NC#N)Nc1ccc(C2=NNC(=O)CC2C)cc1` (stereo not drawn) displayed a melting point of 208 to 209 °C.

Turning to `Cn1cc(-c2cc3cccnc3[nH]2)c2ccc(C(=O)NCCC(N)=O)cc21`, the melting point lay within 277 to 280 °C.

In turn, `CN1C(=O)CC[C@]2(C)c3ccc(-c4cccc(C(F)(F)F)c4)cc3CC[C@@H]12` yielded a melting point of 64 to 87 °C. Take `CCOC(=O)c1cn(CC)c2nc(C=O)c(OCC)cc2c1=O`: the melting point lay in the range of 169 to 170 °C. On to `C#CCOc1cc(-n2c(=O)cc(C(F)(F)F)[nH]c2=O)ccc1C`, for which the melting point lay within 202 to 204 °C. The value for `Fc1ccc(CN2CCN(C3CC=C(c4ccc(F)cc4)CC3)CC2)cc1` (stereo not drawn) was 109 to 110 °C; that for `COc1ccc2cc(C=NCc3ccccc3)ccc2c1` was 115 to 117 °C. With `O=c1[nH]ncc(Cl)c1NCCCN1CCC(c2noc3cc(F)ccc23)CC1` the figure was 198 to 200 °C; with `O=C(O)CCC1CCCC2CCC(=O)NC12` (stereo not drawn), 95 to 97 °C. With `CCCCCCCCCCc1nc(N(C)C)nc(C)c1O` the figure was 71 to 72 °C; with `Cc1ccc(S(=O)(=O)Nc2ccc(/C(CN3CCN(C)CC3)=N/O)cc2)cc1`, 192 to 193 °C; with `Cc1nn(C)c(NC(=O)Nc2ccccc2)c1C1=CCCC1`, 204 °C. `Cn1c(=O)c(C#N)c(N2CCN(C(=O)c3cccs3)CC2)c2ccccc21` displayed a melting point of 247 °C. For `CCC(C#N)c1cccc(C(=O)c2cc3cc(C(=O)OC)sc3s2)c1` (stereo not drawn), the melting point amounted to 130 °C. The value for `CS(=O)(=O)c1ccc(NC(=O)c2ccccc2SSc2ccccc2C(=O)Nc2ccc(S(C)(=O)=O)cc2)cc1` was 236 to 238 °C; that for `N#CN=C(Nc1ccccc1)Nc1ccc(C#N)cc1O` was 270 to 271 °C; that for `O=C(O)C(Cc1ccccc1)C(=O)NC(CS)Cc1ccccc1` (stereo not drawn) was 65 to 70 °C.

In turn, `COC(=O)c1cc(OC)c(CNC(C)=O)c(OC)c1` had a melting point of 184 °C. The value for `CN1CCN(c2ccc(C(=O)NCCCCCCCCCCO[N+](=O)[O-])cn2)CC1` was 62 to 64 °C. `O=C(O)c1ccc(OCCNC(=O)C2Cc3ccccc3N2S(=O)(=O)c2ccc(-c3ccc(F)cc3)cc2)cc1` (stereo not drawn) gave a melting point of 108 °C.
